Measured values from patent US20240091172A1, “DRUG FOR ANTAGONIZING REPLICATION OF PORCINE REPRODUCTIVE AND RESPIRATORY SYNDROME VIRUS AND APPLICATION THEREOF” (NANJING AGRICULTURAL UNIVERSITY, priority 2019, published 2024).

Assays:
PRRSV [1] = test: PRRSV replication in Marc-145 cells (TCID50, ORF7 mRNA, CPE/IFA, Western blot); type: cell-based, porcine reproductive and respiratory syndrome virus
Procedure: (§1) Marc-145 cells were cultured in a 96-well plate. When the cell confluence reached 70%, a nutrient solution was pipetted and discarded, and the cell surface was washed 3 times with PBS. Ten-fold serially diluted PRRSV was added to the cells and the cells were incubated at 37° C. for 1 h. The medium was replaced with fresh 2% FBS-DMEM. Virus titers were determined 5 days post-inoculation (dpi) using end-point dilution analysis. The 50% cell infectious dose (TCID50) was calculated by the Reed-Muench method.
(§2) Cellular RNAs were extracted following the operation instructions of an OMEGA RNA virus extraction kit. […] Relative fluorescence quantification was performed after reverse transcription, and the primer sequences used were as follows:
(§3) According to the method of 2-ΔΔCt, the relative content of mRNA of each gene in a sample was calculated with a CT value.
(§4) Further, the inhibitory efficiency of Xn on PRRSV in Marc145 cells was detected by indirect immunofluorescence. […] To further determine the dose range of Xn with the anti-PRRSV activity, Marc-145 cells were treated with 5 μM, 10 μM, and 15 μM Xn respectively, and then infected with PRRSV (0.01 MOI).

PRRSV [2] = test: IC50 against PRRSV in PAMs by immunofluorescence; type: cell-based; details: Porcine reproductive and respiratory syndrome virus; PAMs cells
Procedure: (§5) Xn of different concentrations was added to a PAMs medium (1-30 μM), and a DMSO negative control group was set up. Cells were inoculated with PRRSV (0.01 MOI) and incubated at 37° C. for 30 h, and the cell supernatant was pipetted and discarded. The cells were fixed with 4% (volume ratio) paraformaldehyde for 15 min, permeabilized with 0.1% (volume ratio) Triton X-100 for 30 min, and washed 3 times with PBS for 3 min each time. A PRRSV N protein monoclonal antibody (2H7) at a dilution of 1:1000 was added, and the cells were incubated at 37° C. for 1 h, and washed 3 times with PBST for 3 min each time. Alexa Fluor 594 goat anti-mouse IgG at a dilution of 1:1000 was added, and the cells were incubated at 37° C. for 45 min. The nuclei were stained with DAPI for 10 min at room temperature. Three photos were recorded randomly with a Nikon A1 confocal microscope. The fluorescence intensity was measured by ImageJ software. Finally, the 50% inhibitory concentration (IC50) of Xn against PRRSV was calculated by GraphPad Prism 7.0 software, and the results were recorded.

PRRSV [3] = test: Stage experiment of drug (pre-, co-, post-treatment) in PAMs; type: cell-based, porcine reproductive and respiratory syndrome virus; details: 24 hpi
Procedure: Xn treatment time and PRRSV infection time are shown on the timeline in FIG. 5A. PAMs were inoculated into a 24-well plate, and after complete sedimentation, the time was set as −1 h. 10 μM Xn was added to a pretreatment group (Pre) at −1 h; and at 0 h; cells were inoculated 0.1 moi PRRSV and incubated at 37° C. for 1 h; the virus-containing cell culture was replaced with 2% FBS-DMEM; and the cells were cultured at 37° C. for 24 h. Xn was added to the cells in a co-treatment group (Co) at 0 h; the cells were inoculated with 0.1 moi PRRSV, and incubated at 37° C. for 1 h; the virus-containing cell culture was replaced with 2% FBS-DMEM; and the cells were cultured at 37° C. for 24 h. A post-treatment group (Post) was inoculated with 0.1 moi PRRSV at 0 h; the culture was discarded at 1 h and replaced with 2% FBS-DMEM containing 10 μM Xn; and the cells were cultured at 37° C. for 24 h.
PAMs were treated with Xn before, during and after PRRSV infection (FIG. 5A). Cell samples were collected at 24 hpi for detection of PRRSV N protein and PRRSV ORF7 mRNA by Western blot and qRT-PCR respectively, and the cell supernatant was collected for virus titer determination.

[4] = tested on: IL-1β, IL-6, IL-8 and TNF-α mRNA; test: PRRSV- or LPS-induced inflammatory reaction in PAM cells (qRT-PCR); type: cell-based, porcine
Procedure: as §2, §3
(§6) Marc-145 cells and PAM cells were inoculated with 0.1 MOI PRRSV and incubated at 37° C. for 1 h. The nutrient solution was replaced with DMEM-2% FBS containing Xn (or DMSO), and 24 h post infection, cellular RNAs were extracted. A positive control group was set up: Marc-145 cells and PAMs were treated with 10 μg/mL LPS (or DMEM) for 1 h; the cell surface was washed 3 times with PBS; 2% FBS-DMEM containing Xn (or DMSO) was added; and after 6 h, the cells were collected, RNAs were extracted, and the mRNA levels of IL-1β, IL-6, IL-8 and TNF-α were detected by qRT-PCR. The results are shown in FIG. 6 (Marc-145) and FIG. 7 (PAM cells).

Marc-145 cells = test: Cytotoxicity to Marc-145 cells (CCK8, CC50); type: cell-based
Procedure: (§7) Cell viability was detected with the enhanced CCK8 kit. The concentration (CC50) at which Xn was cytotoxic to 50% of the cells was calculated using GraphPad Prism 7.0 software. DMSO was used as a negative control.
as §4

[5] = Cytotoxicity to Marc-145 cells (CCK8, CC50); type: cell-based; details: African green monkey, Marc-145 cells; Marc145 cells, CCK8 cytotoxicity assay
Procedure: as §7, §4

PRRSV [6] = test: IC50 against PRRSV in Marc145 cells by indirect immunofluorescence; type: cell-based; details: Porcine reproductive and respiratory syndrome virus
Procedure: as §5, §4

PRRSV [7] = test: Natural product drug library screening, PRRSV infection of Marc-145 cells; type: cell-based, porcine reproductive and respiratory syndrome virus; details: for inhibitory effects on PRRSV: second round hits
Procedure: Marc-145 cells were treated with 10 μM of natural products and then infected with PRRSV. In the first round of screening, 24 compounds (6.21%) had no obvious cytotoxicity to Marc-145 cells and could reduce PRRSV-induced CPE by 50% (FIG. 1A).

PRRSV [8] = test: PRRSV replication in PAM cells (N protein, ORF7 mRNA, titer, different strains); type: cell-based, porcine reproductive and respiratory syndrome virus
Procedure: as §1, §2
The results are shown in FIGS. 4A-D. In PAM, Xn could inhibit the replication of different genetic subtypes of PRRSV strains in the viral ORF7 gene and protein levels, and reduce the viral infection titer.

[9] = Cytotoxicity (CC50) in PAMs cells; type: cell-based, porcine; details: pig
[10] = tested on: IL-1β, IL-6, IL-8 and TNF-α mRNA; test: PRRSV- or LPS-induced inflammatory reaction in Marc-145 cells (qRT-PCR); type: cell-based
Procedure: as §2, §3, §6

PRRSV [11] = test: Anti-PRRSV activity of xanthohumol derivatives on Marc-145; type: cell-based, porcine reproductive and respiratory syndrome virus
PRRSV BB0907 strain = test: Piglet treatment experiment after PRRSV infection; type: in vivo, piglets; details: for virus level in the serum vs virus-infected positive control group: 4-14 dpi
[12] = Marc-145, 5, 10, 15 μM Xn, 0.01 MOI, 24, 36, 48 hpi
[13] = PAM cells, dose-dependent manner

With `COc1cc(O)c(CC=C(C)C)c(O)c1C(=O)/C=C/c1ccc(O)cc1` [Xn, xanthohumol] the “replication of the three PRRSV strains (Western blot)” value (PRRSV [1]; Marc-145) was “effectively reduce”, the “number of infected cells (CPE and IFA) vs negative control group” value (PRRSV [1]; Marc-145, 48 hpi) was “significantly less” and the “ORF7 mRNA level” value (PRRSV [1]; [12]) was “dose-dependent decrease”. For the same compound, the “viral titers (TCID50 of PRRSV)” value (PRRSV [1]; [12]) was “dose-dependent decrease”, the IC50 (PRRSV [2]) was 7.05 µM and the “level of PRRSV replication (N protein, ORF7 mRNA, virus titer)” value (“level of PRRSV replication” below) (PRRSV [3]; 10 μM Xn co-treatment (Co)) was “inhibited the virus to a lower degree”. The “level of PRRSV replication” value (PRRSV [3]; 10 μM Xn post virus infection (Post)) was “significantly reduced”, the “level of PRRSV replication” value (PRRSV [3]; 10 μM Xn pretreatment (Pre)) was “inhibited the virus to a lower degree” and the “mRNA expressions of IL-1β, IL-6, IL-8 and TNF-α induced by LPS” value ([4]; 10 μg/mL LPS, 6 h, dose-dependent) was “effectively reduce”. For the same compound, the “mRNA expressions of IL-1β, IL-6, IL-8 and TNF-α induced by PRRSV” value ([4]; 0.1 MOI PRRSV, 24 h post infection, dose-dependent) was “effectively reduce”, the “intracellular inflammatory factors, Xn control treatment” value ([4]; Xn alone) was “did not cause changes” and the “CC50, comparison among the 5 screened compounds” value (Marc-145 cells; Marc-145 cells) was “highest”. The CC50 at 48 h [5] was 62.5 µM, the IC50 (PRRSV [6]) was 2.37 µM and the “IC50, comparison among the 5 screened compounds” value (PRRSV [7]) was “lowest”. For the same compound, the “selectivity index, comparison among the 5 screened compounds” value (PRRSV [7]) was “highest”, the “inhibitory effects on PRRSV” value (PRRSV [7]) was “dose-dependent inhibitory effects” and the “replication of different genetic subtypes of PRRSV strains (ORF7 gene and protein levels)” value (PRRSV [8]; PAM) was “inhibit”. For the same compound, the “level of PRRSV N protein” value (PRRSV [8]; [13]) was “decreased”, the “level of viral mRNA” value (PRRSV [8]; [13]) was “decreased” and the viral infection titer (PRRSV [8]; PAM, different genetic subtypes of PRRSV strains) was “reduce”. For the same compound, the CC50 [9] was 42.6 µM, the “mRNA expressions of IL-1β, IL-6, IL-8 and TNF-α induced by LPS” value ([10]; Marc-145, 10 μg/mL LPS, 6 h, dose-dependent) was “effectively reduce” and the “mRNA expressions of IL-1β, IL-6, IL-8 and TNF-α induced by PRRSV” value ([10]; Marc-145, 0.1 MOI PRRSV, 24 h post infection, dose-dependent) was “effectively reduce”. For the same compound, the “intracellular inflammatory factors, Xn control treatment” value ([10]; Marc-145, Xn alone) was “did not cause changes”.
With `COc1cc(OC)c(C(=O)/C=C/c2ccc(O)cc2)c(OC)c1` [Xn-2] the “anti-PRRSV activity on Marc-145” value (PRRSV [11]; 0-50 uM) was “inhibitory effects”.
With `COc1cc(O)c(C(=O)/C=C/c2ccc(O)cc2)c(OC)c1` [Xn-4] the “anti-PRRSV activity on Marc-145” value (PRRSV [11]; 0-50 uM) was “inhibitory effects”, the “anti-PRRSV effect, ranking among the three compounds” value (PRRSV [11]; 0-50 uM, Marc-145) was “best effect” and the “concentration with an obvious antiviral effect” value (PRRSV [11]; Marc-145) was 15 µM. The pigs died (PRRSV BB0907 strain; 10 mg/kg intramuscular, 5 per group, death at 10 dpi) was 1, the “rectal temperature of the piglets” value (PRRSV BB0907 strain; 10 mg/kg intramuscular, 14 days post infection) was “increased” and the “virus level in the serum vs virus-infected positive control group” value (PRRSV BB0907 strain; 10 mg/kg, P<0.05) was “significantly lower”. For the same compound, the “lung pathological change scores vs positive control group” value (PRRSV BB0907 strain; 10 mg/kg, 14 dpi, P<0.05) was “significantly lower”, the “clinical fever and clinical symptoms” value (PRRSV BB0907 strain; 20 mg/kg intramuscular, days 0-14) was “no clinical fever or obvious clinical symptoms” and the survival (PRRSV BB0907 strain; 20 mg/kg intramuscular, during the experiment) was “all were healthy and alive”. For the same compound, the “copy number of the PRRSV genome in the nasal swabs vs positive control group” value (PRRSV BB0907 strain; 20 mg/kg, 4-10 dpi) was “significantly lower”, the “virus level in the serum vs virus-infected positive control group” value (PRRSV BB0907 strain; 20 mg/kg, P<0.05) was “significantly lower” and the “PRRSV viral load in the lungs vs control group” value (PRRSV BB0907 strain; 20 mg/kg, 14 dpi, P<0.05) was “significantly lower”. The “lung pathological change scores vs positive control group” value (PRRSV BB0907 strain; 20 mg/kg, 14 dpi, P<0.05) was “significantly lower” and the “inflammatory factors IL-1β, IL-6, IL-8 and TNF-α mRNA in the lung tissue” value (PRRSV BB0907 strain; 5, 10, 20 mg/kg, qRT-PCR) was “decreased in a dose-dependent manner”.
With `COc1cc(O)cc(O)c1C(=O)/C=C/c1cccc([N+](=O)[O-])c1` [Xn-5] the antiviral ability (PRRSV [11]; low concentrations) was “did not have antiviral ability” and the cytotoxicity (Marc-145 cells; low concentrations) was “highly cytotoxic”.
With `Oc1c(Cl)cc(Cl)c2cccnc12` [chloroxine, reference compound] the “inhibitory effects on PRRSV” value (PRRSV [7]) was “dose-dependent inhibitory effects”.
In the case of `COc1cc(/C=C/C(=O)CC(=O)/C=C/c2ccc(O)c(OC)c2)ccc1O` [curcumin], the “inhibitory effects on PRRSV” value (PRRSV [7]) is reported as “dose-dependent inhibitory effects”.
